The results in this text go back to patent US20140249165A1, “PURINE DERIVATIVES FOR TREATMENT OF CYSTIC DISEASES” (Genzyme Corporation, priority 2006, published 2014).

For orientation: IC50 means the concentration at which inhibition is half-maximal.

For one data set, the system named is MDCK cysts. The conditions noted are these: read-out: IC50 of inhibition of cystic growth; MDCK cysts in 3D collagen I gel, 96 hours incubation, Alamar Blue.
A further data set deals with jck kidney. The data set is described as follows: PCNA and TUNEL staining of jck kidney sections. The format is in vivo, mouse. The conditions noted are these: Roscovitine treated jck kidney.
The subject of data set [1] is cystic kidneys (cell cycle and transcription proteins). Nature of the data set: Western blot analysis of cystic kidney protein extracts. Type of data set: in vivo, mouse. The conditions noted are these: cystic kidneys of treated mice. The method, then:
Kidneys were homogenized in RIPA buffer (10 mM HEPES, pH 8.0, 100 mM NaCl, 1% Triton X-100, 0.1% SDS, 0.5% sodium deoxycholate, 1 mM DTT, 1 mM EDTA, 1 mM NaF, 1 mM Na3VO4) with Complete™ protease inhibitor cocktail (Roche Diagnostic GmbH, Mannheim, Germany). 30 μg of protein samples were separated in 4-12% SDS/acrylamide gels (Invitrogen, Carlsbad, Calif.). Gels were soaked in transfer buffer (192 mM glycine, 25 mM Tris, 10% methanol, pH 8.3) and transferred to Immobilone-P membranes (Millipore Corporation, Bedford, Mass.). Membranes were rehydrated with methanol and incubated in blocking buffer (5% powdered milk or 3% BSA in PBS) for 30 min. Membranes were incubated overnight at 4° C. with primary antibodies against RNApolII-p, p35/p25 (Abcam, Cambridge, Mass.); Rb-p, cycD1, cycD1-p, ERK2, ERK1/2-p (Cell Signaling, Danvers, Mass.); Rb2, RBBP, cycD3, caspase-2, caspase-3, ApaF1, Bcl-2, Bcl-XL, BAD (BD Biosciences, San Jose, Calif.); CDK7, CDK9, PCNA, GAPDH (US Biologicals, Swampscott, Mass.); cycD2 (BioSource International, Camarillo, Calif.), washed in TBST and incubated with HRP-labeled secondary antibodies as recommended by the manufacturer Immunoreactive proteins were detected using enhanced chemi-luminescence (Amersham Pharmacia Biotech, Little Chalfont Buckinghamshire, England).

The next data set deals with cpk model of PKD. The conditions noted are these: cpk mice, 100 mg/kg IP daily, day 7 till day 21.
The mark [2] stands for this setting: jck female, 150 mg/kg IP daily, continuous 5 W.
Setting [3] is: jck male, 50 mg/kg IP daily, continuous 5 W.
Where [4] appears, read: jck male, 150 mg/kg IP daily, continuous 5 W (Table 2).
[5] abbreviates: jck male, 150 mg/kg, daily dosing for 5 weeks (Table 2a).
[6] abbreviates: jck male, 150 mg/kg, pulse treatment 5 W (1/1): 1 week on, 1 week off for 5 weeks.
Setting [7] is: jck male, 150 mg/kg, pulse treatment 5 W (3/2): 3 weeks on, 2 weeks off.

SMILES strings stand for the structures. Where two headings read alike, the source gives them in different places.

Consider `CC[C@H](CO)Nc1nc(N(C)Cc2ccccc2)c2ncn(C(C)C)c2n1`, for which the IC50 in the data set on MDCK cysts is 190 µM.

Consider `CC[C@H](CO)Nc1nc(NCc2ccccc2)c2ncn(C(C)C)c2n1` [Roscovitine, 6-benzylamino-2-(R)-[(1-ethyl-2-hydroxy)ethylamino]-9-isopropylpurine], for which the PCNA-positive cells result in the data set with jck kidney (PCNA immunostaining) is reported as “quantitative reduction in PCNA-positive cells”. In the data set with jck kidney (TUNEL staining), the TUNEL-positive cells entry is “reduced the number of TUNEL-positive cells”. The “Cyclin D2 and D3 expression” value in data set [1] is given as “downregulated”. For the same compound, in data set [1], the “Level of ERK 1/2 activation” value was “decreasing the level of ERK 1/2 activation”. The “Levels of Rb associated proteins Rb2 and RBB2” value in data set [1] is “normalized”. Moreover, in data set [1], the “Phosphorylation level of cyclin D1 (Thr-286)” value is reported as “normalized phosphorylation level of cyclin D1”. Moreover, the Rb phosphorylation result in data set [1] is “dephosphorylation of Rb3”. Further, the “RNA pol II phosphorylation” value in data set [1] (vs WT controls) is on record as “reduced levels of RNA pol II phosphorylation”. Moreover, the BUN in the data set on jck mouse model of PKD (setting [2]) is recorded as 31.09 ± 6.12 mg/dL; with jck mouse model of PKD (setting [3]) it was 51.25 ± 10.19 mg/dL; in the data set with jck mouse model of PKD (setting [4]) it was 26.78 ± 3.31 mg/dL; in the data set on jck mouse model of PKD (setting [5]) it was 28.89 ± 7.51 mg/dL; with jck mouse model of PKD (setting [6]), 43.90 ± 13.08 mg/dL; in the data set on jck mouse model of PKD (setting [7]), 27.60 ± 4.32 mg/dL. The “BUN” value is recorded as “reduced” in the data set on jck mouse model of PKD (jck mice, 50 mg/kg); “normalized” in the data set on jck mouse model of PKD (jck mice, 150 mg/kg); 54.58 ± 9.60 mg/dL in the data set with cpk model of PKD. The Body weight in the data set with jck mouse model of PKD (setting [2]) was found to be 19.79 ± 0.80 g; in the data set with jck mouse model of PKD (setting [3]), 20.54 ± 1.66 g; in the data set with jck mouse model of PKD (setting [4]), 21.52 ± 1.78 g; with jck mouse model of PKD (setting [5]), 22.33 ± 1.05 g; in the data set with jck mouse model of PKD (setting [6]) it was 22.14 ± 1.10 g; in the data set on jck mouse model of PKD (setting [7]), 22.77 ± 0.39 g. Besides, in the data set with cpk model of PKD, the Body weight was found to be 9.75 ± 1.00 g. Moreover, the Cystic volume worked out at 0.74 ± 0.24 % BW in the data set on jck mouse model of PKD (setting [2]); 2.25 ± 0.66 % BW in the data set with jck mouse model of PKD (setting [3]); 0.98 ± 0.15 % BW in the data set on jck mouse model of PKD (setting [4]); 1.10 ± 0.41 % BW with jck mouse model of PKD (setting [5]); 1.28 ± 0.22 % BW in the data set on jck mouse model of PKD (setting [6]); 1.29 ± 0.40 % BW with jck mouse model of PKD (setting [7]). Moreover, the Cystic volume in the data set on cpk model of PKD is listed as 14.62 ± 2.16 % BW. The “Tolerability (weight loss, mortality, toxicity)” value in the data set on jck mouse model of PKD (jck mice, 50 or 150 mg/kg IP) is reported as “well tolerated with no weight loss, mortality or toxicity”. For the same compound, in the data set with jck mouse model of PKD (jck mice, daily for one week followed by one week off, total of 5 weeks), the “Cystogenesis with intermittent dosing” value is given as “reduction of cystogenesis was detected”. Further, the “Anti-cystic effect after drug withdrawal” value with jck mouse model of PKD (jck/jck males, 150 mg/kg daily for 3 weeks, followed by 2 weeks without treatment) is on record as “long lasting anti-cystic effect was detected with normalized levels of BUN”. Moreover, the Creatinine in the data set on cpk model of PKD stood at 0.29 ± 0.07 mg/dL.
